Measured values: the supplement of paper PMC4932681
Counter-ions that a name gives are not always drawn.

Assays:
BT-474 Tam1 [1] = experiment: drug sensitivity score (DSS) (DSS (dimensionless)); higher = more sensitive; extreme values may be limits of the assay; conditions: 4-OH-tamoxifen in medium 1 µM; 72 h
Method in brief: (§1)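 After seeding into 384-well plates with library drugs at five concentrations spanning a 10 000-fold range, breast cancer cell lines and their resistant derivatives were incubated 72 h at 37 °C. Resistant lines received medium with 1 μM of the selecting drug. CellTiter-Glo signal was read on a PHERAstar and scaled to vehicle-only and positive controls. Drug sensitivity score, relative IC50 (the curve midpoint) and top-dose inhibition came from logistic fits run in the Breeze pipeline.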

BT-474 Tam2 [2] = experiment: as above; conditions: 4-OH-tamoxifen in medium 1 µM; 72 h
Method in brief: as §1

BT-474 [3] = experiment: as above; conditions: 72 h
Method in brief: as §1

MCF-7 Tam1 [4] = experiment: as above; conditions: 4-OH-tamoxifen in medium 1 µM; 72 h
Method in brief: as §1

MCF-7 [5] = experiment: as above; conditions: 72 h
Method in brief: as §1

T-47D Tam1 [6] = experiment: as above; conditions: 4-OH-tamoxifen in medium 1 µM; 72 h
Method in brief: as §1

T-47D Tam2 [7] = experiment: as above; conditions: 4-OH-tamoxifen in medium 1 µM; 72 h
Method in brief: as §1

T-47D [8] = experiment: as above; conditions: 72 h
Method in brief: as §1

ZR-75-1 Tam1 [9] = experiment: as above; conditions: 4-OH-tamoxifen in medium 1 µM; 72 h
Method in brief: as §1

ZR-75-1 Tam2 [10] = experiment: as above; conditions: 4-OH-tamoxifen in medium 1 µM; 72 h
Method in brief: as §1

ZR-75-1 [11] = experiment: as above; conditions: 72 h
Method in brief: as §1

BT-474 Tam1 [12] = experiment: relative IC50 (midpoint of fitted logistic curve, plateau may be below 50% inhibition; CellTiter-Glo viability); higher = less potent; conditions: 4-OH-tamoxifen in medium 1 µM; 72 h
Method in brief: as §1

BT-474 Tam2 [13] = experiment: as above; conditions: 4-OH-tamoxifen in medium 1 µM; 72 h
Method in brief: as §1

BT-474 [14] = experiment: as above; conditions: 72 h
Method in brief: as §1

MCF-7 Tam1 [15] = experiment: as above; conditions: 4-OH-tamoxifen in medium 1 µM; 72 h
Method in brief: as §1

MCF-7 [16] = experiment: as above; conditions: 72 h
Method in brief: as §1

T-47D Tam1 [17] = experiment: as above; conditions: 4-OH-tamoxifen in medium 1 µM; 72 h
Method in brief: as §1

T-47D Tam2 [18] = experiment: as above; conditions: 4-OH-tamoxifen in medium 1 µM; 72 h
Method in brief: as §1

T-47D [19] = experiment: as above; conditions: 72 h
Method in brief: as §1

ZR-75-1 Tam1 [20] = experiment: as above; conditions: 4-OH-tamoxifen in medium 1 µM; 72 h
Method in brief: as §1

ZR-75-1 Tam2 [21] = experiment: as above; conditions: 4-OH-tamoxifen in medium 1 µM; 72 h
Method in brief: as §1

ZR-75-1 [22] = experiment: as above; conditions: 72 h
Method in brief: as §1

SMILES | relative IC50 (BT-474 Tam1 [12]) [nM] | relative IC50 (BT-474 Tam2 [13]) [nM] | relative IC50 (BT-474 [14]; 4-OH-tamoxifen in medium 0 µM) [nM] | relative IC50 (BT-474 [14]; 4-OH-tamoxifen in medium 1 µM) [nM] | relative IC50 (MCF-7 Tam1 [15]) [nM] | relative IC50 (MCF-7 [16]; 4-OH-tamoxifen in medium 0 µM) [nM] | relative IC50 (T-47D Tam1 [17]) [nM] | relative IC50 (T-47D Tam2 [18]) [nM] | relative IC50 (T-47D [19]; 4-OH-tamoxifen in medium 1 µM) [nM] | relative IC50 (MCF-7 [16]; 4-OH-tamoxifen in medium 1 µM) [nM] | relative IC50 (T-47D [19]; 4-OH-tamoxifen in medium 0 µM) [nM] | drug sensitivity score (BT-474 Tam1 [1]) | drug sensitivity score (BT-474 Tam2 [2]) | drug sensitivity score (BT-474 [3]; 4-OH-tamoxifen in medium 0 µM) | drug sensitivity score (BT-474 [3]; 4-OH-tamoxifen in medium 1 µM) | drug sensitivity score (MCF-7 Tam1 [4]) | drug sensitivity score (MCF-7 [5]; 4-OH-tamoxifen in medium 0 µM) | drug sensitivity score (MCF-7 [5]; 4-OH-tamoxifen in medium 1 µM) | drug sensitivity score (T-47D Tam1 [6]) | drug sensitivity score (T-47D Tam2 [7]) | drug sensitivity score (T-47D [8]; 4-OH-tamoxifen in medium 0 µM) | drug sensitivity score (T-47D [8]; 4-OH-tamoxifen in medium 1 µM) | drug sensitivity score (ZR-75-1 Tam1 [9]) | drug sensitivity score (ZR-75-1 Tam2 [10]) | drug sensitivity score (ZR-75-1 [11]; 4-OH-tamoxifen in medium 0 µM) | drug sensitivity score (ZR-75-1 [11]; 4-OH-tamoxifen in medium 1 µM) | relative IC50 (ZR-75-1 Tam1 [20]) [nM] | relative IC50 (ZR-75-1 Tam2 [21]) [nM] | relative IC50 (ZR-75-1 [22]; 4-OH-tamoxifen in medium 0 µM) [nM] | relative IC50 (ZR-75-1 [22]; 4-OH-tamoxifen in medium 1 µM) [nM]
CCOc1cc2ncc(C#N)c(Nc3ccc(OCc4ccccn4)c(Cl)c3)c2cc1NC(=O)/C=C/CN(C)C [Neratinib] | 4.18 | 3.76 | 9.18 | 6.18 | > 1000 | > 1000 | 97.6 | 218 | > 1000 | – | – | 28.3 | 28.7 | 20.8 | 25.6 | 0 | 0 | 2.07 | 3.53 | 2.11 | 0.25 | 0 | 0 | 0 | 0 | 0 | > 1000 | > 1000 | > 1000 | > 1000
COC(=O)C[C@](O)(CCCC(C)(C)O)C(=O)O[C@@H]1C(OC)=C[C@]23CCCN2CCc2cc4c(cc2[C@H]13)OCO4 [Omacetaxine (Homoharringtonine)] | 2990 | 1780 | – | 1890 | 82.2 | 29 | 93.7 | 419 | 172 | 16.7 | 138 | 4.82 | 6.34 | 6.72 | 6.25 | 16.2 | 25.1 | 26.1 | 16.4 | 10.7 | 17.4 | 11 | 13.8 | 17.8 | 19 | 15.2 | 84.4 | 92.2 | 37.2 | 46.5
O=C(O)C(=O)O.[NH-][C@@H]1CCCC[C@H]1[NH-].[Pt+2] [Oxaliplatin] | > 10000 | > 10000 | > 10000 | > 10000 | > 10000 | > 10000 | > 10000 | > 10000 | > 10000 | > 10000 | > 10000 | 0 | 0 | 0 | 0 | 0 | 0 | 0 | 0 | 0 | 0 | 0 | 0 | 0 | 0 | 0 | > 10000 | > 10000 | > 10000 | > 10000
Cc1ccc([N+](=O)[O-])cc1S(=O)(=O)N(C)/N=C/c1cnc2ccc(Br)cn12 [PIK-75 (HCl)] | 31.6 | 58.7 | 148 | 48.6 | 50.5 | 33.2 | 48.3 | 82.6 | 81.3 | 30.5 | 33.2 | 29.8 | 26.8 | 21.2 | 27.2 | 22.6 | 22.3 | 26.4 | 25.1 | 20.5 | 21.8 | 15.3 | 14.9 | 18.9 | 16.9 | 16.7 | 309 | 108 | 133 | 94.5
Nc1nc2[nH]cc(CCc3ccc(C(=O)N[C@@H](CCC(=O)O)C(=O)O)cc3)c2c(=O)[nH]1 [Pemetrexed] | > 10000 | > 10000 | > 10000 | > 10000 | > 10000 | > 10000 | > 10000 | > 10000 | – | – | > 10000 | 0 | 0 | 0 | 0 | 0 | 0 | 0.305 | 0 | 0 | 0 | 0 | 0 | 0 | 0 | 0 | > 10000 | > 10000 | > 10000 | > 10000

Further lines, with some results ahead:

relative IC50 (BT-474 Tam1 [12]) [nM] | relative IC50 (BT-474 Tam2 [13]) [nM] | relative IC50 (BT-474 [14]; 4-OH-tamoxifen in medium 0 µM) [nM] | relative IC50 (BT-474 [14]; 4-OH-tamoxifen in medium 1 µM) [nM] | relative IC50 (MCF-7 Tam1 [15]) [nM] | relative IC50 (MCF-7 [16]; 4-OH-tamoxifen in medium 0 µM) [nM] | relative IC50 (T-47D Tam1 [17]) [nM] | relative IC50 (T-47D Tam2 [18]) [nM] | relative IC50 (T-47D [19]; 4-OH-tamoxifen in medium 1 µM) [nM] | relative IC50 (MCF-7 [16]; 4-OH-tamoxifen in medium 1 µM) [nM] | relative IC50 (T-47D [19]; 4-OH-tamoxifen in medium 0 µM) [nM] | SMILES | drug sensitivity score (BT-474 Tam1 [1]) | drug sensitivity score (BT-474 Tam2 [2]) | drug sensitivity score (BT-474 [3]; 4-OH-tamoxifen in medium 0 µM) | drug sensitivity score (BT-474 [3]; 4-OH-tamoxifen in medium 1 µM) | drug sensitivity score (MCF-7 Tam1 [4]) | drug sensitivity score (MCF-7 [5]; 4-OH-tamoxifen in medium 0 µM) | drug sensitivity score (MCF-7 [5]; 4-OH-tamoxifen in medium 1 µM) | drug sensitivity score (T-47D Tam1 [6]) | drug sensitivity score (T-47D Tam2 [7]) | drug sensitivity score (T-47D [8]; 4-OH-tamoxifen in medium 0 µM) | drug sensitivity score (T-47D [8]; 4-OH-tamoxifen in medium 1 µM) | drug sensitivity score (ZR-75-1 Tam1 [9]) | drug sensitivity score (ZR-75-1 Tam2 [10]) | drug sensitivity score (ZR-75-1 [11]; 4-OH-tamoxifen in medium 0 µM) | drug sensitivity score (ZR-75-1 [11]; 4-OH-tamoxifen in medium 1 µM) | relative IC50 (ZR-75-1 Tam1 [20]) [nM] | relative IC50 (ZR-75-1 Tam2 [21]) [nM] | relative IC50 (ZR-75-1 [22]; 4-OH-tamoxifen in medium 0 µM) [nM] | relative IC50 (ZR-75-1 [22]; 4-OH-tamoxifen in medium 1 µM) [nM]
203 | 338 | 333 | 697 | 713 | 1420 | 134 | 131 | 543 | 1160 | 246 | COc1cccc2cc(-c3nc([C@H]4CC[C@H](C(=O)O)CC4)n4ncnc(N)c34)[nH]c12 [OSI-027] | 7.62 | 5.03 | 5.02 | 6.48 | 2.71 | 4.23 | 4.31 | 15.8 | 8.2 | 11.9 | 5.99 | 9.81 | 12.5 | 11 | 11 | 219 | 198 | 263 | 132
102 | 187 | 245 | 157 | 1970 | 161 | 295 | 429 | 3620 | 140 | 278 | O=C(Nc1cccnc1)N1CCC(Cc2cccc(Oc3ccc(C(F)(F)F)cn3)c2)CC1 [PF-3845] | 23.7 | 20.4 | 18.1 | 21.2 | 9.98 | 16.5 | 19.2 | 17.5 | 13.7 | 11.6 | 10.7 | 18.7 | 18.8 | 10.2 | 19.7 | 218 | 233 | 725 | 179
